Common to all, as to assay type: functional, cell-based
One assay deals with MCF7. The experiment in a line: Antiproliferative activity against human MCF7 cells assessed as reduction in cell viability measured after 24 hrs by MTT assay. As to conditions: MCF7, 24 h. For orientation: Tetrazolium assays rely on reduction of a dye to a coloured formazan, in cell work by metabolically active cells.
A further assay has as its system HeLa. Nature of the assay: Antiproliferative activity against human HeLa cells assessed as reduction in cell viability measured after 24 hrs by MTT assay.
A further assay deals with Raji. Nature of the assay: Antiproliferative activity against human Raji cells assessed as reduction in cell viability measured after 24 hrs by MTT assay.
Another assay concerns A2780S. Nature of the assay: Antiproliferative activity against human A2780S cells assessed as reduction in cell viability measured after 24 hrs by MTT assay.
The subject of a further assay is NCI-H460. Nature of the assay: Antiproliferative activity against human NCI-H460 cells assessed as reduction in cell viability measured after 24 hrs by MTT assay. As to conditions: NCI-H460, 24 h.

Where only a bound is given, the exact number is not on record here.

Consider `Cc1cccc(Oc2cccc(CNc3cc4c(cn3)[nH]c3ccccc34)c2)c1`, for which the IC50 in the assay with MCF7 was 47 nM; with HeLa, 41 nM; in the assay on Raji, 29 nM; in the assay on A2780S, 44 nM; with NCI-H460, 44 nM.

For `CC(=O)Nc1ccccc1Oc1cccc(CNc2cc3c(cn2)[nH]c2ccccc23)c1`, the IC50 with MCF7, in the assay with HeLa, in the assay on Raji, in the assay on A2780S and with NCI-H460 was over 500 nM each time.

`c1csc(CNc2cc3c(cn2)[nH]c2ccccc23)c1`: the IC50 is 424 nM in the assay with MCF7; 412 nM with HeLa; 257 nM in the assay on Raji; over 500 nM in the assay on A2780S; over 500 nM in the assay with NCI-H460.

Consider `CSc1ccc(Oc2cccc(CNc3cc4c(cn3)[nH]c3ccccc34)c2)cc1`, for which the IC50 in the assay with MCF7, with HeLa, in the assay on Raji, in the assay with A2780S and with NCI-H460 was over 500 nM each time.

`COc1cc2c(c(OC)c1OC)-c1ccc(OC)c(=O)cc1[C@@H](NC(C)=O)CC2` [COLCHICINE]: the IC50 in the assay on HeLa was determined as 16 nM; in the assay with Raji, 18 nM; in the assay with NCI-H460 it was 12 nM.

With `c1cc(CNc2cc3c(cn2)[nH]c2ccccc23)cc(OC2CCCC2)c1`, the IC50 in the assay with MCF7, with HeLa, in the assay on Raji, in the assay with A2780S and in the assay on NCI-H460 was over 500 nM throughout.

As for `c1ccc(Oc2ccc(Oc3cccc(CNc4cc5c(cn4)[nH]c4ccccc45)c3)cc2)cc1`, the IC50 in the assay on MCF7, in the assay on HeLa, in the assay with Raji, in the assay on A2780S and with NCI-H460 was over 500 nM in each case.

As to `c1ccc2c(c1)[nH]c1cnc(NC3CCCC3)cc12`, the IC50 in the assay on MCF7 was 397 nM; in the assay on HeLa, over 500 nM; in the assay on Raji, 242 nM; in the assay with A2780S, 92 nM; with NCI-H460, over 500 nM.

On to `FC(F)(F)c1ccc(Oc2cccc(CNc3cc4c(cn3)[nH]c3ccccc34)c2)cc1`, for which the IC50 in the assay with MCF7 came to 68 nM; with HeLa it was 81 nM; in the assay with Raji, 54 nM; in the assay with A2780S, 85 nM; in the assay on NCI-H460, 47 nM.

Consider `COc1cccc(Oc2cccc(CNc3cc4c(cn3)[nH]c3ccccc34)c2)c1`, for which the IC50 in the assay on MCF7 came out at 109 nM; with HeLa, 219 nM; with Raji it was 178 nM; in the assay with A2780S it was 148 nM; in the assay on NCI-H460 it was 313 nM.

In the case of `c1ccc(-c2ccc(CNc3cc4c(cn3)[nH]c3ccccc34)cc2)cc1`, the IC50 in the assay on MCF7, in the assay with HeLa, with Raji, in the assay on A2780S and in the assay on NCI-H460 was over 500 nM throughout.

As for `c1ccc2c(c1)[nH]c1cnc(NCc3ccoc3)cc12`, the IC50 in the assay with MCF7 worked out at 71 nM; in the assay with HeLa, 66 nM; in the assay with Raji, 73 nM; in the assay with A2780S, 93 nM; with NCI-H460, 342 nM.

Consider `c1cc2ccc3cccc4c(CNc5cc6c(cn5)[nH]c5ccccc56)cc(c1)c2c34`, for which the IC50 with MCF7, in the assay with HeLa, in the assay with Raji, with A2780S and in the assay with NCI-H460 was over 500 nM in each case.

As to `COCCOc1cccc(CNc2cc3c(cn2)[nH]c2ccccc23)c1`, the IC50 in the assay with MCF7, in the assay on HeLa, in the assay on Raji, with A2780S and with NCI-H460 was over 500 nM each time.

On to `N#Cc1cccc(Oc2cccc(CNc3cc4c(cn3)[nH]c3ccccc34)c2)c1`, for which the IC50 with MCF7 was over 500 nM; in the assay with HeLa it was 500 nM; in the assay with Raji, over 500 nM; in the assay with A2780S, over 500 nM; in the assay on NCI-H460 it was over 500 nM.

On to `COc1ccc(COc2cccc(CNc3cc4c(cn3)[nH]c3ccccc34)c2)cc1`, for which the IC50 with MCF7, in the assay on HeLa, with Raji, in the assay on A2780S and in the assay with NCI-H460 was over 500 nM in each case.

For the compound `CCOc1cccc(CNc2cc3c(cn2)[nH]c2ccccc23)c1`, the IC50 in the assay with MCF7, with HeLa, in the assay with Raji, in the assay on A2780S and with NCI-H460 was over 500 nM throughout.

Consider `CC(C)=CCOc1cccc(CNc2cc3c(cn2)[nH]c2ccccc23)c1`, for which the IC50 in the assay on MCF7, with HeLa, in the assay on Raji, in the assay on A2780S and in the assay on NCI-H460 was over 500 nM throughout.

Turning to `CCCNc1cc2c(cn1)[nH]c1ccccc12`, the IC50 in the assay with MCF7, with HeLa, with Raji, with A2780S and with NCI-H460 was over 500 nM in each case.

Take `CC(C)(C)CC(C)(C)c1ccc(Oc2cccc(CNc3cc4c(cn3)[nH]c3ccccc34)c2)cc1`: the IC50 with MCF7, with HeLa, with Raji, with A2780S and in the assay on NCI-H460 was over 500 nM in each case.

`CCCOc1cccc(CNc2cc3c(cn2)[nH]c2ccccc23)c1`: the IC50 in the assay on MCF7, with HeLa, in the assay with Raji, with A2780S and with NCI-H460 was over 500 nM throughout.

In the case of `c1ccc2c(c1)[nH]c1cnc(NCc3ccsc3)cc12`, the IC50 with MCF7 was determined as 73 nM; with HeLa, 93 nM; in the assay on Raji, 43 nM; with A2780S it was 63 nM; in the assay with NCI-H460, 87 nM.

For `CC(C)CNc1cc2c(cn1)[nH]c1ccccc12`, the IC50 in the assay with MCF7, with HeLa, with Raji, in the assay on A2780S and in the assay on NCI-H460 was over 500 nM each time.

Regarding `c1ccc(-c2ccc(Oc3cccc(CNc4cc5c(cn4)[nH]c4ccccc45)c3)cc2)cc1`, the IC50 in the assay with MCF7, in the assay on HeLa, in the assay with Raji, in the assay on A2780S and with NCI-H460 was over 500 nM each time.

On to `Cn1cccc1CNc1cc2c(cn1)[nH]c1ccccc12`, for which the IC50 in the assay with MCF7 was over 500 nM; in the assay with HeLa it was over 500 nM; in the assay with Raji it was over 500 nM; in the assay with A2780S, over 500 nM; with NCI-H460 it was 500 nM.

`COc1ccccc1Oc1cccc(CNc2cc3c(cn2)[nH]c2ccccc23)c1`: the IC50 in the assay with MCF7 is over 500 nM; in the assay on HeLa, over 500 nM; with Raji it was 500 nM; in the assay on A2780S it was over 500 nM; in the assay on NCI-H460, over 500 nM.

In the case of `CC(=O)Nc1ccc(Oc2cccc(CNc3cc4c(cn3)[nH]c3ccccc34)c2)cc1`, the IC50 came out at 27 nM in the assay on MCF7; 67 nM in the assay on HeLa; 15 nM in the assay on Raji; 11 nM in the assay on A2780S; 31 nM with NCI-H460.

In the case of `c1ccc(-c2cccc(CNc3cc4c(cn3)[nH]c3ccccc34)c2)cc1`, the IC50 with MCF7, in the assay with HeLa, in the assay on Raji, with A2780S and with NCI-H460 was over 500 nM each time.

Consider `Clc1ccc(Oc2cccc(CNc3cc4c(cn3)[nH]c3ccccc34)c2)cc1`, for which the IC50 in the assay with MCF7 is 48 nM; in the assay on HeLa, 45 nM; with Raji it was 74 nM; with A2780S, 73 nM; in the assay on NCI-H460 it was 222 nM.

Take `c1cc(CNc2cc3c(cn2)[nH]c2ccccc23)cc(Oc2ccc3c(c2)OCCO3)c1`: the IC50 in the assay on MCF7, in the assay on HeLa, in the assay with Raji, in the assay on A2780S and with NCI-H460 was over 500 nM in each case.

For `CC(C)CCOc1cccc(CNc2cc3c(cn2)[nH]c2ccccc23)c1`, the IC50 in the assay with MCF7, in the assay with HeLa, in the assay on Raji, in the assay with A2780S and in the assay on NCI-H460 was over 500 nM each time.

Turning to `COc1ccc(Oc2cccc(CNc3cc4c(cn3)[nH]c3ccccc34)c2)cc1`, the IC50 was 33 nM in the assay on MCF7; 19 nM with HeLa; 20 nM with Raji; 12 nM in the assay with A2780S; 67 nM with NCI-H460.

On to `Fc1ccccc1Oc1cccc(CNc2cc3c(cn2)[nH]c2ccccc23)c1`, for which the IC50 in the assay with MCF7 was determined as 93 nM; in the assay on HeLa it was 59 nM; with Raji, 16 nM; in the assay with A2780S it was 73 nM; in the assay on NCI-H460, 105 nM.

Regarding `CC(=O)Nc1cccc(Oc2cccc(CNc3cc4c(cn3)[nH]c3ccccc34)c2)c1`, the IC50 in the assay with MCF7 is 76 nM; with HeLa, 83 nM; with Raji, 45 nM; with A2780S it was 58 nM; in the assay on NCI-H460, 74 nM.

Consider `COc1ccc(CNc2cc3c(cn2)[nH]c2ccccc23)cn1`, for which the IC50 in the assay on MCF7, in the assay with HeLa, in the assay on Raji, in the assay with A2780S and in the assay with NCI-H460 was over 500 nM in each case.

`c1ccc(Oc2cccc(CNc3cc4c(cn3)[nH]c3ccccc34)c2)cc1`: the IC50 with MCF7 came to 49 nM; in the assay with HeLa it was 51 nM; with Raji, 31 nM; in the assay on A2780S, 45 nM; in the assay on NCI-H460 it was 62 nM.

For the compound `Fc1cccc(Oc2cccc(CNc3cc4c(cn3)[nH]c3ccccc34)c2)c1`, the IC50 in the assay on MCF7 was 59 nM; with HeLa it was 71 nM; in the assay with Raji it was 42 nM; in the assay with A2780S, 41 nM; with NCI-H460 it was 50 nM.

For `Fc1ccc(Oc2cccc(CNc3cc4c(cn3)[nH]c3ccccc34)c2)cc1`, the IC50 amounted to 27 nM in the assay on MCF7; 39 nM in the assay on HeLa; 33 nM in the assay with Raji; 28 nM in the assay on A2780S; 76 nM in the assay with NCI-H460.

A word on the IC50: it is the midpoint of a concentration-inhibition curve.

The record behind these values is ChEMBL document CHEMBL5042535, “Structure-Based Design and Synthesis of N-Substituted 3-Amino-β-Carboline Derivatives as Potent αβ-Tubulin Degradation Agents” (J Med Chem, 2022).
